IC50 data for nine compounds are collected here from patent EP4800018A1, “PAN-KRAS INHIBITOR AND USE THEREOF IN MEDICINES” (Betta Pharmaceuticals Co., Ltd., priority 2023, dated 2025).

The structures appear in SMILES notation. Read-outs that look alike come from different tables or passages of the source.

Type in all cases: cell-based
The target in one assay is T1, KRAS G12V-cRAF (Homo sapiens, UniProt P01116, G12V).
T1 construct: expressed in transfected cells
Nature of the assay: Cellular KRAS G12V-cRAF Binding Inhibition Assay (NanoBRET, AD293 stable cells). To be noted: NanoBRET KRAS G12V, 3 h incubation. The method, then: NanoLuc® luciferase was used as the energy donor, and NanoBRET™ 618 fluorescent ligand labeled with the HaloTag® protein was used as the energy acceptor to detect protein-protein interactions in living cells. […] Except for wells with medium added as a blank control, NanoBRET™ 618 fluorescent ligand was added to all other wells, and the plates were cultured overnight in a cell culture incubator. […] The luminescence data were calculated and converted into inhibition percent. The inhibition percent of KRAS G12V-cRAF binding was calculated according to the following formula: Inhibition Percent = (MaxValue−MeasuredValue)/(MaxValue−Blank) × 100% [formula] […] Curve fitting was performed using GraphPad Prism software to obtain IC50 values, see Table 1.
A general note: In BRET a luciferase serves as donor, and the signal depends on an acceptor being close.

Assay [1] relates to KRAS-G12D mutant tumor cells AGS. The assay is described as follows: Cell Proliferation Inhibition Assay (AGS), Cell-titer GLO, 96 h. The note with it: Homo sapiens, AGS, 96 h, read-out: AGS(G12D). The method, then: KRAS-G12D mutant tumor cells AGS were seeded in low-attachment 96-well plates at a cell density of 1×10^3 cells/well and cultured overnight in a cell culture incubator. […] After incubation at 37°C for 96 h, 50 µL of Cell-titer GLO working solution was added to each well, mixed by shaking, incubated at room temperature for 10 min, and the Luminescence value was read on a multi-function microplate reader. The luminescence data were calculated and converted into inhibition percent. The inhibition percent of cell proliferation was calculated according to the following formula: Inhibition Percent = (MaxValue−MeasuredValue)/(MaxValue−Blank) × 100% [formula] […] Curve fitting was performed using GraphPad Prism software to obtain IC50 values, see Table 1.

Assay [2] concerns KRAS-G12V mutant tumor cells SW620. Nature of the assay: Cell Proliferation Inhibition Assay (SW620), Cell-titer GLO, 96 h. The note with it: Homo sapiens, SW-620, 96 h, read-out: SW620(G12V). The method, then: KRAS-G12V mutant tumor cells SW620 were seeded in low-attachment 96-well plates at a cell density of 1×10^3 cells/well and cultured overnight in a cell culture incubator. After the cells adhered, the test compounds were added to the 96-well plates at final concentrations of 10000, 2000, 400, 80, 16, 3.2, 0.64, 0.13, 0.03, 0 nM (final concentration of DMSO was 0.5% for all). After incubation at 37°C for 96 h, 50 µL of Cell-titer GLO working solution was added to each well, mixed by shaking, incubated at room temperature for 10 min, and the Luminescence value was read on a multi-function microplate reader. The luminescence data were calculated and converted into inhibition percent. The inhibition percent of cell proliferation was calculated according to the following formula: Inhibition Percent = (MaxValue−MeasuredValue)/(MaxValue−Blank) × 100% [formula]
("Max Value" comes from the 0.5% DMSO control well, "Blank" comes from the blank control well, and "Measured Value" comes from the compound-treated well).
Curve fitting was performed using GraphPad Prism software to obtain IC50 values, see Table 1.

The next assay deals with T2, KRAS G12D-cRAF (Homo sapiens, UniProt P01116, G12D).
T2 construct: expressed in transfected cells
T2 sequence (P01116 1-188 isoform P01116-2 G12D): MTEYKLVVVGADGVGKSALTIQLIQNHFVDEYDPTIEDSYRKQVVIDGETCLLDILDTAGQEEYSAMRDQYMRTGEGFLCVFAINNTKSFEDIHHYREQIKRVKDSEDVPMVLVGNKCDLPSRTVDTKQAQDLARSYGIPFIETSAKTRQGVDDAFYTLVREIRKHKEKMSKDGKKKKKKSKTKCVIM
The assay is described as follows: Cellular KRAS G12D-cRAF Binding Inhibition Assay (NanoBRET, AD293 stable cells). To be noted: NanoBRET KRAS G12D, 3 h incubation. The method, then:
NanoLuc® luciferase was used as the energy donor, and NanoBRET™ 618 fluorescent ligand labeled with the HaloTag® protein was used as the energy acceptor to detect protein-protein interactions in living cells. AD293 stable cells transfected with KRAS G12D-NanoLuc® luciferase and cRAF RBD-HaloTag® tag protein were seeded in 96-well plates at a cell density of 1×10^4 cells/well. Except for wells with medium added as a blank control, NanoBRET™ 618 fluorescent ligand was added to all other wells, and the plates were cultured overnight in a cell culture incubator. […] The luminescence data were calculated and converted into inhibition percent. The inhibition percent of KRAS G12D-cRAF binding was calculated according to the following formula: Inhibition Percent = (MaxValue−MeasuredValue)/(MaxValue−Blank) × 100% [formula] […] Curve fitting was performed using GraphPad Prism software to obtain IC50 values, see Table 1.

The mark [3] stands for this setting: AGS cells, 96 h incubation, Cell-titer GLO.
Setting [4] is: SW620 cells, 96 h incubation, Cell-titer GLO.

T1 sequence (P01116 1-188 isoform P01116-2 G12V): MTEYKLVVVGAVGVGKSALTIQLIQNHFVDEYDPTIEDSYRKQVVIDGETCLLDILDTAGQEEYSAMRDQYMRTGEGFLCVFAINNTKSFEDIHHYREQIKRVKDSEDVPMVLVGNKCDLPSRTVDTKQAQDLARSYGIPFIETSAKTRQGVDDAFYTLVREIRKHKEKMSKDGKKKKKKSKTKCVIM

Regarding `C[C@@H]1OCCCn2c(c3c4cc(ccc42)-c2csc(n2)C[C@H](NC(=O)[C@H]2C[C@@H]2C)C(=O)N2CCC[C@H](N2)C(=O)OCC(C)(C)C3)-c2cc(N3CCN(C)CC3)cnc21` [Example 1, (1S,2S)-2-methyl-N-((1^5S,6^3S,4S,Z)-1^5,10,10-trimethyl-1^2-(4-methylpiperazin-1-yl)-5,7-dioxo-1 ^8,1^9,6^1,6^2,6^3,6^4,6^5,6^6-octahydro-1^5H,1^7-oxa-1(13,15)-pyrido[3',2':7,8][1,5]oxazonino[5,6-a]indola-2(4,2)-thiazola-6(1,3)-pyridazinacycloundecaphane-4-yl)cyclopropane-1-carboxamide], the IC50 on KRAS G12V-cRAF was 29.9 nM; in assay [1] it was 7.86 nM; in assay [2], 0.54 nM; on KRAS G12D-cRAF, 6.1 nM.

Take `C[C@@H]1OCCCn2c(c3c4cc(ccc42)-c2csc(n2)C[C@H](NC(=O)[C@H]2C[C@@H]2C(F)F)C(=O)N2CCC[C@H](N2)C(=O)OCC(C)(C)C3)-c2cc(N(C)C3CCN(C)C3)cnc21` (stereo partly drawn) [Example 160, (1S,2S)-2-(difluoromethyl)-N-((1^5S,6^3S,4S,Z)-1^5,10,10-trimethyl-1^2-(methyl(1-methylpyrrolidin-3-yl)amino)-5,7-dioxo-1^8,1^9,6^1,6^2,6^3,6^4,6^5,6^6-octahydro-1^5H,1^7H-8-oxa-1(13,15)-pyrido[3',2':7,8][1,5]oxazonino[5,6-a]indola-2(4,2)-thiazola-6(1,3)-pyridazinacycloundecaphane-4-yl)cycloprop ane-1-carboxamide]: the IC50 in assay [1] (setting [3]) came out at 2.25 nM; in assay [2] (setting [4]), 0.98 nM.

Regarding `C[C@@H]1OCCCn2c(c3c4cc(ccc42)-c2csc(n2)C[C@H](NC(=O)[C@H]2C[C@@H]2C(F)F)C(=O)N2CCC[C@H](N2)C(=O)OCC(C)(C)C3)-c2cc(N3C[C@@H]4CCN(C)[C@@H]4C3)cnc21` [Example 163, (1S,2S)-2-(difluoromethyl)-N-((1^5S,6^3S,4S,Z)-1^5,10,10-trimethyl-1^2-((3aS,6aS)-1-methylhexahydropyrrolo[3,4-b]pyrrol-5(1H)-yl)-5,7-dioxo-1^8,1^9,6^1,6^2,6^3,6^4,6^5,6^6-octahydro-1^5H,1^7H-8-oxa-1(1 3,15)-pyrido[3',2':7,8][1,5]oxazonino[5,6-a]indola-2(4,2)-thiazola-6(1,3)-pyridazinacycloundecaphane-4-yl)cyclopropane-1-carboxamide], the IC50 in assay [1] (setting [3]) was found to be 1.44 nM; in assay [2] (setting [4]), 0.2 nM.

For `C[C@@H]1[C@H](C)[C@H]1C(=O)N[C@H]1Cc2nc(cs2)-c2ccc3c(c2)c(c2n3CCCO[C@@H](C)c3ncc(N4C[C@@H](C)O[C@@H](C)C4)cc3-2)CC(C)(C)COC(=O)[C@@H]2CCCN(N2)C1=O` [Example 166, (1r,2R,3S)-N-((1^5S,6^3S,4S,Z)-1^2-((2S,6R)-2,6-dimethylmorpholino)-1^5,10,10-trimethyl-5,7-dioxo-1^8,1^9,6^1,6^2,6^3,6^4,6^5,6^6-octahydro-1^5H,1^7H-8-oxa-1(13,15)-pyrido[3',2':7,8][1,5]oxazonino[5,6-a]indola-2(4,2)-thiazola-6(1,3)-pyridazinacycloundecaphane-4-yl)-2,3-dimethylcyclopropane-1-ca rboxamide], the IC50 in assay [1] (setting [3]) came out at 0.36 nM; in assay [2] (setting [4]), 0.14 nM.

As to `C[C@@H]1[C@H](C)[C@H]1C(=O)N[C@H]1Cc2nc(cs2)-c2ccc3c(c2)c(c2n3CCCO[C@@H](C)c3ncc(CN4CCOCC4)cc3-2)CC(C)(C)COC(=O)[C@@H]2CCCN(N2)C1=O` [Example 194, (1r,2R,3S)-2,3-dimethyl-N-((1^5S,6^3S,4S,Z)-1^5,10,10-trimethyl-1^2-(morpholinomethyl)-5,7-dioxo-1^8,1^9,6^1,6^2,6^3,6^4,6^5,6^6-octahydro-1^5H,1^7H-8-oxa-1(13,15)-pyrido[3',2':7,8][1,5]oxazonino[5,6-a]indola-2(4,2)-thiazola-6(1,3)-pyridazinacycloundecaphane-4-yl)cyclopropane-1-carboxamide], the IC50 in assay [1] (setting [3]) worked out at 3 nM; in assay [2] (setting [4]), 1.4 nM.

In the case of `CC1OCCCn2c(c3c4cc(ccc42)-c2csc(n2)CC(NC(=O)C2C(C)C2C)C(=O)N2NC(C(=O)OCC(C)(C)C3)C3CC2C3)-c2cc(N3CCN(C)CC3)nnc21` [Example 195, (1r,2R,3S)-2,3-dimethyl-N-((1^5S,6^4S,4S,Z)-1^5,10,10-trimethyl-1^2-(4-methylpiperazin-1-yl)-5,7-dioxo-1^8,1^9-dihydro-1^5H,1^7H-8-oxa-6^2,6^3-diaza-1(13,15)-pyridazino[4',3':7,8][1,5]oxazonino[5,6-a]indola-2(4,2)-thiazola-6(2,4)-bicyclo[3.1.1]heptanacycloundecaphane-4-yl)cyclopropane-1-car boxamide], the IC50 stood at 0.6 nM in assay [1] (setting [3]) and 0.06 nM in assay [2] (setting [4]).

In the case of `CC1OCCCn2c(c3c4cc(ccc42)-c2csc(n2)CC(NC(=O)C2COC2)C(=O)N2NC(C(=O)OCC(C)(C)C3)C3CC2C3)-c2cc(N3CCN(C)CC3)cnc21` [Example 199, N-((1^5S,6^4S,4S,Z)-1^5,10,10-trimethyl-1^2-(4-methylpiperazin-1-yl)-5,7-dioxo-1^8,1^9-dihydro-1^5H, 1 ^7H-8-oxa-6^2,6^3-diaza-1(13,15)-pyrido[3',2':7,8][1,5]oxazonino[5,6-a]indola-2(4,2)-thiazola-6(2,4)-bicyclo[3.1.1]heptanacycloundecaphane-4-yl)oxetane-3-carboxamide], the values for the IC50 in assay [1] (setting [3]) and in assay [2] (setting [4]) were 39 nM and 4.1 nM, respectively.

`CCN1CCN(c2cnc3c(c2)-c2c4c5cc(ccc5n2C[C@@H](OC)CO[C@H]3C)-c2csc(n2)C[C@H](NC(=O)[C@H]2C[C@@H]2C)C(=O)N2CCC[C@H](N2)C(=O)OCC(C)(C)C4)CC1` [Example 203, (1S,2S)-N-((1^5S,1^8R,6^3S,4S,Z)-1^2-(4-ethylpiperazin-1-yl)-1^8-methoxy-1^5,10,10-trimethyl-5,7-dioxo-1^8,1^9,6^1,6^26^3,6^4,6^5,6^6-octahydro-1^5H,1^7H-8-oxa-1(13,15)-pyrido[3',2':7,8][1,5]oxazonino[5,6-a]indola-2(4,2)-thiazola-6(1,3)-pyridazinacycloundecaphane-4-yl)-2-methylcyclopropane-1-carb oxamide]: the results for the IC50 in assay [1] (setting [3]) and in assay [2] (setting [4]) were 2.1 nM and 3.3 nM, respectively.

Turning to `CC(C)[C@@H](C(=O)N[C@H]1Cc2nc(cs2)-c2ccc3c(c2)c(c2n3CCCO[C@@H](C)c3ncc(N4CCN(C)CC4)cc3-2)CC(C)(C)COC(=O)[C@H]2NN(C1=O)C1CC2C1)N(C)C(=O)N(C)C` [Example 204, (2S)-3-methyl-N-((1^5S,6^4S,4S,Z)-1^5,10,10-trimethyl-1^2-(4-methylpiperazin-1-yl)-5,7-dioxo-1^8,1^9-dihydro-1^5H,1^7H-8-oxa-6^2,6^3-diaza-1(13,15)-pyrido[3',2':7,8][1,5]oxazonino[5,6-a]indola-2(4,2) -thiazola-6(2,4)-bicyclo[3.1.1]heptanacycloundecaphane-4-yl)-2-(1,3,3-trimethylureido)butanamide], the IC50 was 0.4 nM in assay [1] (setting [3]) and 0.2 nM in assay [2] (setting [4]).
